Reference: US8921373B2, “Compounds having TRPV1 antagonistic activity and uses thereof” (Shionogi & Co., Ltd., priority 2010, dated 2014)

What was measured:
human recombinant TRPV1 [1] = target: T1, human recombinant TRPV1 (Homo sapiens (Human), UniProt Q8NER1); experiment: TRPV1 Capsaicin-Based Assay (Protocol 2, TRPV1/CHO cells, Fluo-4, FLIPR); format: cell-based; conditions: TRPV1/CHO cells, capsaicin 100 nM final; read-out: IC50 value by the Capsaicin-Based Assay
Procedure, shortened: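 CHO cells stably expressing human TRPV1 were loaded with 3 μM Fluo-4 for 1 h, then given compounds in HBSS/1 mM CaCl2/20 mM HEPES pH 7.4 with 1% DMSO for 2 min before 100 nM capsaicin (final). FLIPR fluorescence recorded over the full course; curves fitted.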

human recombinant TRPV1 [2] = target: T1, human recombinant TRPV1; experiment: TRPV1 pH-Based Assay (Protocol 2, Ca2+ response in TRPV1/CHO cells, Fura-2); format: cell-based; conditions: TRPV1/CHO cells, pH 5.0-5.1; read-out: IC50 value by the pH-Based Assay
Procedure, shortened: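 CHO cells stably expressing human TRPV1, Fura-2 loaded, given compound (1% DMSO in 10× stock) before acid challenge to final pH 5.0-5.1 (3.2 or 3.3 mM H2SO4). 340/380 nm ratio recorded at 0.5 Hz; maximal ratio after agonist addition versus 16-point baseline used as response.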

T1 sequence (Q8NER1 whole entry): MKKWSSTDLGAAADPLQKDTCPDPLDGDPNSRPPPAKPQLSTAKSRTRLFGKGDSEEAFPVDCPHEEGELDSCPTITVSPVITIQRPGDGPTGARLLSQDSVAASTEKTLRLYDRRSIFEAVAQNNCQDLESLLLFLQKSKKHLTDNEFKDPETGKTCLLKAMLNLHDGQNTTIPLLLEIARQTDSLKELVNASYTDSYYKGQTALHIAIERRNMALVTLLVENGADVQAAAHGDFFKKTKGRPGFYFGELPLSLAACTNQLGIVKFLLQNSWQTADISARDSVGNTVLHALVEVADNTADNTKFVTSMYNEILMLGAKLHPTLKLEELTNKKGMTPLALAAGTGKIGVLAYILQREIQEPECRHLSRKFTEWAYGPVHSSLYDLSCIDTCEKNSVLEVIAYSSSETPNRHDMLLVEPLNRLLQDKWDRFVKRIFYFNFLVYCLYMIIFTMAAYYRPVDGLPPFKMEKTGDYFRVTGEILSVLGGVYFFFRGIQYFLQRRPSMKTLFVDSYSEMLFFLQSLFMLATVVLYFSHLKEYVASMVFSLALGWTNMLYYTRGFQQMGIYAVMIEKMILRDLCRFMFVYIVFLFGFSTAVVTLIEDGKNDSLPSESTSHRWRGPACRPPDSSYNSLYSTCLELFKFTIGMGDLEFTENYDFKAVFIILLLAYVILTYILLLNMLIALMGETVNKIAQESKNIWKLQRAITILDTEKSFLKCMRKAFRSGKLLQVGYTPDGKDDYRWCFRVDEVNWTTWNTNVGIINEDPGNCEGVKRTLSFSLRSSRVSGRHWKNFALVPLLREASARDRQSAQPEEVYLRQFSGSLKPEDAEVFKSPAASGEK

## Cc1cc(NC(=O)N2CCC(F)(c3ncc(C[C@H](O)CO)cc3F)CC2)ccc1C(F)(F)F [ACQ, (S)-4-(5-(2,3-dihydroxypropyl)-3-fluoropyridin-2-yl)-4-fluoro-N-(3-methyl-4-(trifluoromethyl)phenyl)piperidine-1-carboxamide]
Human recombinant TRPV1 [1]
  IC50: ≤ 50 nM
Human recombinant TRPV1 [2]
  IC50: ≤ 50 nM
